This note sets out measurements from patent US9757399B2, “Butyrylcholinesterase inhibitors” (priority 2006, dated 2017).

The target of experiment [1] is T1, Acetylcholinesterase (from electric eel) (Electrophorus electricus, UniProt O42275).
T1 construct: Acetylcholinesterase (from electric eel); purchased Sigma; host or cells: electric eel (natural source)
Put plainly: Acetylcholinesterase activity, Ellman assay after pre-incubation with inhibitor. In kind it is biochemical. The conditions noted are these: 100 μM compound, 60 minutes at 25° C.; read-out: % Activity ± SD (acetylcholinesterase activity relative to enzyme incubated with solvent). The method, then: (§1) Acetylcholinesterase (from electric eel), butyrylcholinesterase (from horse serum), DTNB, butyrylthiocholine, acetylthiocholine, and BSA were purchased from Sigma. The dialkyl 2-chlorophenyl (and 4-chlorophenyl) phosphates were solubilized in reagent grade methanol.
(§2) Cholinesterase activity measurements were performed essentially according to the method of Ellman (Biochemical Pharmacology 7:88-90, 1961). The composition of the assay mixture was 0.1 M sodium phosphate, pH 7.5, 0.033 M DTNB, 0.001 M MgCl2, and 100 μg/mL of BSA containing appropriate amounts of substrate and inhibitor. Each assay was initiated by the addition of substrate and the activity quantified by measuring the formation of the thionitrobenzoate anion at 412 nm at 37° C. Methanol used to solubilize the dialkyl phenyl phosphates [1% (v/v) final concentration] had no inhibitory effect on either enzyme.
(§3) Butyrylcholinesterase was pre-incubated at room temperature with inhibitor in the assay cocktail minus substrate for varying periods of time at 25° C. Substrate was then added and the activity measured as described above. The relative rates of enzyme inactivation were determined by plotting enzyme activity versus time of pre-incubation with inhibitor. Results were expressed as the rate constant for the rate of enzyme inactivation. In the case of AcChase, results were expressed as the % of activity remaining relative to the enzyme incubated only with solvents.
The first series of experiments determined the effect of the dialkyl 2-chlorophenyl (and 4-chlorophenyl) phosphates on both AcChase and BuChase. None of the compounds had any inhibitory effect on AcChase (See Table 1). In Table 1, AcChase was incubated with 100 μM of the indicated phenyl phosphate for 60 minutes at 25° C. and then assayed as described above. Results were expressed as the % activity relative to enzyme incubated with solvent ±SD (standard deviation).

The target of experiment [2] is T2, butyrylcholinesterase (from horse serum) (Equus caballus, UniProt P81908).
T2 construct: butyrylcholinesterase (from horse serum); purchased Sigma; host or cells: horse serum (natural source)
The experiment is described as follows: Rates of inactivation of butyrylcholinesterase, Ellman assay. The conditions noted are these: 100 nM inhibitor, 25° C. The experiment is classed as biochemical. The method, then: as §1, §2, §3
. […] In Table 2, BuChase was incubated for increasing periods of time at 25° C. with 100 nM inhibitor then assayed for activity as described above. Rate constants were calculated from a plot of enzyme activity vs. time of inhibitor exposure. […]. Slopes were calculated by linear regression analysis.
(Ellman's reagent forms a yellow product with free thiols.)

T1 sequence (O42275 24-633): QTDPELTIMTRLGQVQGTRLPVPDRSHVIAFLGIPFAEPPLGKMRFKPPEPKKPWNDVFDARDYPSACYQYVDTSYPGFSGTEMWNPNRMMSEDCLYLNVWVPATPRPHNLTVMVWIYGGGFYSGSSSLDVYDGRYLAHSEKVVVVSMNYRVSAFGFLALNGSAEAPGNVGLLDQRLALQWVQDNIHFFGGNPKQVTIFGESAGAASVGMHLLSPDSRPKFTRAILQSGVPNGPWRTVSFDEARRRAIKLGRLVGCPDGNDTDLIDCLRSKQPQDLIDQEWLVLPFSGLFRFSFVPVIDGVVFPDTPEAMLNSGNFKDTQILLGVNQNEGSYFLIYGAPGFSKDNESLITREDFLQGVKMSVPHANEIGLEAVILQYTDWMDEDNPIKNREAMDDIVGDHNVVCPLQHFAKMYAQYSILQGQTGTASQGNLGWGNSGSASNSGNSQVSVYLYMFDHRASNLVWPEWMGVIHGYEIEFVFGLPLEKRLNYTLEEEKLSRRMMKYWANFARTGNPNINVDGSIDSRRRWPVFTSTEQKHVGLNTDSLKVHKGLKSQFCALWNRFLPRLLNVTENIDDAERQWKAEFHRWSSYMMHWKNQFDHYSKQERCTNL
T2 sequence (P81908 whole entry): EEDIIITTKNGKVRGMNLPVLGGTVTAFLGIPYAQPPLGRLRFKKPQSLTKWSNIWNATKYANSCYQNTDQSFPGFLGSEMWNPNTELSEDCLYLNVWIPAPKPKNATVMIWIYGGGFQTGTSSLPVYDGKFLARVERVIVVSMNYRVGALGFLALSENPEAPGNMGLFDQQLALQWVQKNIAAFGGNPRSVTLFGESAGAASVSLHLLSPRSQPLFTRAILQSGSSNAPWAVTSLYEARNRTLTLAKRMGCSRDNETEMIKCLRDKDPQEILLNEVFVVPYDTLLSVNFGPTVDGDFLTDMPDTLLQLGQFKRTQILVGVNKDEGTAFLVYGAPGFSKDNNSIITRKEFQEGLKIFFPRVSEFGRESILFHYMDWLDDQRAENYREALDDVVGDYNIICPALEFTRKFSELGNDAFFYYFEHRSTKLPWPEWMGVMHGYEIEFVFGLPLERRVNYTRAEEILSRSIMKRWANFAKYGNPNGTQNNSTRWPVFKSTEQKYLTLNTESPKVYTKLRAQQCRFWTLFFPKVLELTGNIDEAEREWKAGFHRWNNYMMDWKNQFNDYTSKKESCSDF

Turning to `CCCCOP(=O)(OCCCC)Oc1ccccc1Cl` [DB2ClPP, Di-n-butyl 2-chlorophenyl phosphate], in experiment [1], the activity at 100 µM was determined as 97.6 ± 0.029%. The “k, rate constant of inactivation of butyrylcholinesterase ± S.E.M” value in experiment [2] was 64.76 ± 3.0 min^−1 × 10^−2.
